Data as given in ChEMBL document CHEMBL5096202, “Carbon-silicon switch led to the discovery of novel synthetic cannabinoids with therapeutic effects in a mouse model of multiple sclerosis” (Eur J Med Chem, 2021).
Activity calls are given as the source filed them. No cut-off for these calls is given here.

Assays:
[1] = Metabolic stability in mouse liver microsomes assessed as intrinsic clearance; assay type: ADME, Microsome; details: read-out: CLH
[2] = Metabolic stability in rat liver microsomes assessed as half life; assay type: ADME, Microsome
Cannabinoid receptor 1 [3] = molecular target: T1, Cannabinoid receptor 1 (Homo sapiens, UniProt P21554); experiment: Agonist activity at recombinant human CB1 receptor expressed in CHO cells assessed as inhibition of forskolin-induced cAMP accumulation by measuring maximum efficacy preincubated for 15 mins followed by forskolin stimulation and measured after 15 mins by HTRF assay relative to control; assay type: functional, cell-based; details: filed as agonist, time 30.0 min
T1 sequence (P21554 whole entry, the tested form may be a part): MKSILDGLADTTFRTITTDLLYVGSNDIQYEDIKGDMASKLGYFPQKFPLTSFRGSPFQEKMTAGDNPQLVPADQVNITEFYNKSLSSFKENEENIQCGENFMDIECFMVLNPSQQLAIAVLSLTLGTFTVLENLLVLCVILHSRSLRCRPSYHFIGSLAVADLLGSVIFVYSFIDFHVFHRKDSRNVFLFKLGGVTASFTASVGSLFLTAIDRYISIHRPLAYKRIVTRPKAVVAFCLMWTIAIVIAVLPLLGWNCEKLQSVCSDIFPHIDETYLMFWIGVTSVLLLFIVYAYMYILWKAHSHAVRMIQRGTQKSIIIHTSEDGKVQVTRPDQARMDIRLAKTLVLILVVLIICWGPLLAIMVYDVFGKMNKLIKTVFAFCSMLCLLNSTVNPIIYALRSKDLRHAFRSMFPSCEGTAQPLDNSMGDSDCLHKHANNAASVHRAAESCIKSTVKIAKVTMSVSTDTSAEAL

Mus musculus [4] = experiment: Antiinflammatory activity in MOG (35 to 55 residues)/pertussis toxin-induced experimental autoimmune encephalomyelitis C57BL/6 mouse model assessed as reduction in clinical score administered intraperitoneally starting from day 3 to day 28; assay type: functional, organism-based; details: route ip, time 25.0 day, DDE = dose-dependent effect
Mus musculus [5] = experiment: Antiinflammatory activity in MOG (35 to 55 residues)/pertussis toxin-induced experimental autoimmune encephalomyelitis C57BL/6 mouse model assessed as reduction in infarcted brain proportion at 5 to 10 mg/kg, ip administered starting from day 3 to day 28 by TTC staining based analysis relative to control; assay type: functional; design: scale not given: the % may be the effect or the level left; details: dose 5-10 mg/kg, time 25 day
[6] = Half life in C57BL/6 mouse at 10 mg/kg, ip measured upto 24 hrs by LC-MS/MS analysis; assay type: ADME, organism-based; details: in vivo
[7] = Toxicity in MOG (35 to 55 residues)/pertussis toxin-induced experimental autoimmune encephalomyelitis C57BL/6 mouse model assessed as body weight loss at 5 to 10 mg/kg, ip administered starting from day 3 to day 28; assay type: organism-based; details: in vivo, 600 h, dose 5-10 mg/kg, time 25 day
Cannabinoid receptor 2 [8] = molecular target: T2, Cannabinoid receptor 2 (Homo sapiens, UniProt P34972); experiment: Agonist activity at recombinant human CB2 receptor expressed in CHO cells assessed as inhibition of forskolin-induced cAMP accumulation by measuring maximum efficacy preincubated for 15 mins followed by forskolin stimulation and measured after 15 mins by HTRF assay relative to control; assay type: functional, cell-based; details: filed as agonist, time 30.0 min
T2 sequence (P34972 whole entry, the tested form may be a part): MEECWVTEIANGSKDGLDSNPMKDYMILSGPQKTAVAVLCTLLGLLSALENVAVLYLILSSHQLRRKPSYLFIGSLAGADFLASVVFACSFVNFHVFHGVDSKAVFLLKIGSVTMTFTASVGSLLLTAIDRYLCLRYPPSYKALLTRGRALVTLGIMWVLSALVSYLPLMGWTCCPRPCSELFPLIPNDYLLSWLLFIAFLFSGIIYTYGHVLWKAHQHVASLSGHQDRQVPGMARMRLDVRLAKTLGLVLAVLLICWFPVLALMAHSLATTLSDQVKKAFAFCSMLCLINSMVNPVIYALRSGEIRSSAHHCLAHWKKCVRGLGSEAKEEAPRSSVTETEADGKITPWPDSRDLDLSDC

Mus musculus [9] = experiment: Antiinflammatory activity in MOG (35 to 55 residues)/pertussis toxin-induced experimental autoimmune encephalomyelitis C57BL/6 mouse model assessed as reduction in demyelination in transverse section of lumbar spinal cords at 5 to 10 mg/kg, ip administered starting from day 3 to day 28 by H&E staining based analysis; assay type: functional, organism-based; details: dose 5-10 mg/kg, time 25.0 day
Mus musculus [10] = experiment: Antiinflammatory activity in MOG (35 to 55 residues)/pertussis toxin-induced experimental autoimmune encephalomyelitis C57BL/6 mouse model assessed as reduction of inflammatory cell infiltration in transverse section of lumbar spinal cords at 5 to 10 mg/kg, ip administered starting from day 3 to day 28 by LFB staining based analysis; assay type: functional, organism-based; details: dose 5-10 mg/kg, time 25.0 day
[11] = AUClast in C57BL/6 mouse at 10 mg/kg, ip measured upto 24 hrs by LC-MS/MS analysis; assay type: ADME, organism-based; design: time < 24 hrs, dose 10 mg/kg, route ip; details: in vivo
Cannabinoid receptor 1 [12] = molecular target: T1, Cannabinoid receptor 1; experiment: Displacement of [3H]-CP55940 from recombinant human CB1 receptor expressed in CHO cells assessed as inhibition constant incubated for 120 mins by radioligand binding assay; assay type: cell-based
Mus musculus [13] = experiment: Antiinflammatory activity in MOG (35 to 55 residues)/pertussis toxin-induced experimental autoimmune encephalomyelitis C57BL/6 mouse model assessed as reduction in demyelination in transverse section of lumbar spinal cords at 5 to 10 mg/kg, ip administered starting from day 3 to day 28 by LFB staining based analysis; assay type: functional, organism-based; details: dose 5-10 mg/kg, time 25.0 day
Cannabinoid receptor 1 [14] = molecular target: T1, Cannabinoid receptor 1; experiment: Agonist activity at recombinant human CB1 receptor expressed in CHO cells assessed as inhibition of forskolin-induced cAMP accumulation preincubated for 15 mins followed by forskolin stimulation and measured after 15 mins by HTRF assay; assay type: functional, cell-based
[15] = Toxicity in MOG (35 to 55 residues)/pertussis toxin-induced experimental autoimmune encephalomyelitis C57BL/6 mouse model assessed as behavioral changes at 10 mg/kg, ip administered once daily starting from day 3 to day 28; assay type: organism-based; details: in vivo, 600 h, time 25 day
Mus musculus [16] = experiment: Antiinflammatory activity in MOG (35 to 55 residues)/pertussis toxin-induced experimental autoimmune encephalomyelitis C57BL/6 mouse model assessed as reduction of inflammatory cell infiltration in transverse section of lumbar spinal cords at 5 to 10 mg/kg, ip administered starting from day 3 to day 28 by H&E staining based analysis; assay type: functional, organism-based; details: dose 5-10 mg/kg, time 25.0 day
[17] = AUCinfinity in C57BL/6 mouse at 10 mg/kg, ip measured upto 24 hrs by LC/MS-MS analysis; assay type: ADME, organism-based; design: dose 10 mg/kg, time < 24 hrs, route ip; details: in vivo
[18] = Metabolic stability in rat liver microsomes assessed as intrinsic clearance; assay type: ADME, Microsome; details: read-out: CLH
[19] = Metabolic stability in human liver microsomes assessed as half life; assay type: ADME, Microsome
Cannabinoid receptor 2 [20] = molecular target: T2, Cannabinoid receptor 2; experiment: Displacement of [3H]-CP55940 from recombinant human CB2 receptor expressed in CHO cells assessed as inhibition constant incubated for 120 mins by radioligand binding assay; assay type: cell-based
[21] = Metabolic stability in mouse liver microsomes assessed as half life; assay type: ADME, Microsome
[22] = Cmax in C57BL/6 mouse at 10 mg/kg, ip measured upto 24 hrs by LC-MS/MS analysis; assay type: ADME, organism-based; design: dose 10 mg/kg, time < 24 hrs, route ip; details: in vivo
Cannabinoid receptor 2 [23] = molecular target: T2, Cannabinoid receptor 2; experiment: Agonist activity at recombinant human CB2 receptor expressed in CHO cells assessed as inhibition of forskolin-induced cAMP accumulation preincubated for 15 mins followed by forskolin stimulation and measured after 15 mins by HTRF assay; assay type: functional, cell-based
[24] = Metabolic stability in human liver microsomes assessed as intrinsic clearance; assay type: ADME, Microsome; details: read-out: CLH
[25] = Tmax in C57BL/6 mouse at 10 mg/kg, ip measured upto 24 hrs by LC-MS/MS analysis; assay type: ADME, organism-based; details: in vivo
Mus musculus [26] = experiment: Antiinflammatory activity in MOG (35 to 55 residues)/pertussis toxin-induced experimental autoimmune encephalomyelitis C57BL/6 mouse model assessed as reduction in demyelination in transverse section of lumbar spinal cords at 10 to 30 mg/kg, ip administered starting from day 3 to day 28 by H&E staining based analysis; assay type: functional, organism-based; details: dose 10-30 mg/kg, time 25.0 day
Mus musculus [27] = experiment: Antiinflammatory activity in MOG (35 to 55 residues)/pertussis toxin-induced experimental autoimmune encephalomyelitis C57BL/6 mouse model assessed as reduction in demyelination in transverse section of lumbar spinal cords at 10 to 30 mg/kg, ip administered starting from day 3 to day 28 by LFB staining based analysis; assay type: functional, organism-based; details: dose 10-30 mg/kg, time 25.0 day
[28] = Toxicity in MOG (35 to 55 residues)/pertussis toxin-induced experimental autoimmune encephalomyelitis C57BL/6 mouse model assessed as tolerance at 30 mg/kg, ip administered once daily starting from day 3 to day 28; assay type: organism-based; details: in vivo, 600 h, time 25 day
[29] = Toxicity in MOG (35 to 55 residues)/pertussis toxin-induced experimental autoimmune encephalomyelitis C57BL/6 mouse model assessed as body weight loss at 10 to 30 mg/kg, ip administered starting from day 3 to day 28; assay type: organism-based; details: in vivo, 600 h, dose 10-30 mg/kg, time 25 day
Mus musculus [30] = experiment: Antiinflammatory activity in MOG (35 to 55 residues)/pertussis toxin-induced experimental autoimmune encephalomyelitis C57BL/6 mouse model assessed as reduction of inflammatory cell infiltration in transverse section of lumbar spinal cords at 10 to 30 mg/kg, ip administered starting from day 3 to day 28 by H&E staining based analysis; assay type: functional, organism-based; details: dose 10-30 mg/kg, time 25.0 day
[31] = Toxicity in MOG (35 to 55 residues)/pertussis toxin-induced experimental autoimmune encephalomyelitis C57BL/6 mouse model assessed as side effects at 10 to 30 mg/kg, ip administered once daily starting from day 3 to day 28; assay type: organism-based; details: in vivo, 600 h, dose 10-30 mg/kg, time 25 day
[32] = Toxicity in MOG (35 to 55 residues)/pertussis toxin-induced experimental autoimmune encephalomyelitis C57BL/6 mouse model assessed as motor defects at 30 mg/kg, ip administered once daily starting from day 3 to day 28; assay type: organism-based; details: in vivo, 600 h, time 25 day
Mus musculus [33] = experiment: Antiinflammatory activity in MOG (35 to 55 residues)/pertussis toxin-induced experimental autoimmune encephalomyelitis C57BL/6 mouse model assessed as reduction of inflammatory cell infiltration in transverse section of lumbar spinal cords at 10 to 30 mg/kg, ip administered starting from day 3 to day 28 by LFB staining based analysis; assay type: functional, organism-based; details: dose 10-30 mg/kg, time 25.0 day
Mus musculus [34] = experiment: Antiinflammatory activity in MOG (35 to 55 residues)/pertussis toxin-induced experimental autoimmune encephalomyelitis C57BL/6 mouse model assessed as reduction in infarcted brain proportion at 10 to 30 mg/kg, ip administered starting from day 3 to day 28 by TTC staining based analysis relative to control; assay type: functional; design: scale not given: the % may be the effect or the level left; details: dose 10-30 mg/kg, time 25 day

| SMILES | CLint scaled [1] | half-life [2] | Activity (Mus musculus [4]) | half-life [6] | Emax (Cannabinoid receptor 2 [8]) | AUC(0-t) at 24 h [11] | Ki (Cannabinoid receptor 1 [12]) | AUC(0-inf) [17] | CLint scaled [18] | half-life [19] | Ki (Cannabinoid receptor 2 [20]) | half-life [21] | Cmax [22] | EC50 (Cannabinoid receptor 2 [23]) | CLint scaled [24] | Tmax [25] | also measured |
| --- | --- | --- | --- | --- | --- | --- | --- | --- | --- | --- | --- | --- | --- | --- | --- | --- | --- |
| C=C(C)[C@@H]1CCC(C)=C[C@H]1c1c(O)cc([Si](C)(C)CCCCCC)cc1O | 128 mL/min/kg | 19.4 min | Dde | 314 min | 75.6% | 6630 ng·h/mL | 1.56 nM | 6840 ng·h/mL | 318 mL/min/kg | 31.5 min | 4.66 nM | 17.1 min | 1510 ng/mL | 149 nM | 55.2 mL/min/kg | 120 min | Emax (Cannabinoid receptor 1 [3]): 95.9%; Activity (Mus musculus [5]): 50%; Activity [7]: Non-Toxic; Activity (Mus musculus [9]): Active; Activity (Mus musculus [10]): Active; Activity (Mus musculus [13]): Active; EC50 (Cannabinoid receptor 1 [14]): 219 nM; Activity [15]: Toxic; Activity (Mus musculus [16]): Active |
| CCCCCC[Si](C)(C)c1cc(OC)c([C@H]2C=C(CO)[C@H]3C[C@@H]2C3(C)C)c(OC)c1 | 173 mL/min/kg | 58.9 min | Dde | 407 min | 90.6% | 11600 ng·h/mL | 2890 nM | 12300 ng·h/mL | 42.1 mL/min/kg | 49.7 min | 4930 nM | 31.5 min | 2520 ng/mL | 460 nM | 35 mL/min/kg | 120 min | Activity (Mus musculus [26]): Active; Activity (Mus musculus [27]): Active; Activity [28]: Non-Toxic; Activity [29]: Non-Toxic; Activity (Mus musculus [30]): Active; Activity [31]: Non-Toxic; Activity [32]: Non-Toxic; Activity (Mus musculus [33]): Active; Activity (Mus musculus [34]): 90% |
